# According to patent US9572802B2 (Theravance Respiratory Company, LLC, priority 2009, dated 2017):
# Counter-ions that a name gives are not always drawn.
# Test system: methacholine (MCh)-induced bronchoconstriction
# Assay: Rat Einthoven assay: bronchoprotection against methacholine (MCh)-induced bronchoconstriction
# Assay type: in vivo
# Conditions: 100 μg by inhalation, bronchoprotective effect present
# Experimental: This assay measures the ability of a test compound to provide bronchoprotection against methacholine (MCh)-induced bronchoconstriction in a rat. Male Sprague-Dawley rats (Harlan, Indianapolis, Ind.), weighing between 200 g and 350 g, were used for all studies. Test compound or vehicle (sterile deionized water) were dosed by inhalation (1H) over a 10 min period in a pie shaped inhalation chamber (R+S Molds, San Carlos, Calif.) using 5 mL of dosing solution. […] Rats were dosed with 100 μg of test compound unless otherwise indicated. At predetermined time points, rats were anesthetized with all intraperitoneal (IP) injection of 120 mg/kg inactin (thiobutabarbital). A supplemental dose (40 mg/kg, IP) was administered if the animal responded to physical stimuli (e.g. toe pinch). The surgical site was shaved and a 1-2 cm midline incision of the ventral aspect of the neck was made. The jugular vein was isolated and cannulated with a saline-filled polyethylene catheter (PE-50) to allow IV infusion of MCh. Trachea was dissected free and cannulated with a 14G needle (#NE-014, Small Parts, Miami Lakes, Fla.). After placement of the tracheal cannula, each rat was ventilated using a respirator (Model 683, Harvard Apparatus, Inc., Mass.) set at a stroke volume of 1 mL/100 g body weight (but not exceeding 2.5 mL volume) and a rate of 90 strokes per minute. A T-connector was placed along the respirator expiratory tubing to allow for measurement of changes in ventilation pressure (VP) using a Biopac transducer that was connected to a Biopac […]) pre-amplifier. Body temperature was maintained at 37° C. using a heating pad. Changes in VP were recorded using the Acknowledge Data Collection Software (Santa Barbara, Calif.). Baseline values were collected for at least 2.5 min. Rats were then challenged with non-cumulative intravenous (IV) infusions of 40 and 80 μg/kg MCh. MCh was infused intravenously for 2.5 minutes from a syringe pump (sp210iw, World Precision Instruments, Inc., Sarasota, Fla.) at a rate of 2 mL/kg/min, with a 2 minute interval between the two doses of MCh. Changes in ventilation pressure (cm H2O) in treated animals are expressed as % inhibition of MCh response relative to control animals. Other bronchoconstrictors, such as histamine and acetylcholine, can be used in place of MCh in this assay. Additonally, guinea pigs can be used instead of rats. […] Inhibition greater than or equal to 30 percent at 24 h is indicative of a long duration of action.
row,Compound,Broncho. at 24 h
1,"CC(Cc1cccc(CC(=O)NCCCCN(C)C(=O)CCN2CCC(OC(=O)Nc3ccccc3-c3ccccc3)CC2)c1)NC[C@H](O)c1ccc(O)c2[nH]c(=O)ccc12 (stereo in doubt) [Compound I-23, Biphenyl-2-ylcarbamic acid 1-[2-({4-[2-(3-{(R)-2-[(R)-2-hydroxy-2-(8-hydroxy-2-oxo-1,2-dihydroquinolin-5-yl)ethylamino]propyl}phenyl)acetylamino]butyl}methylcarbamoyl)ethyl]piperidin-4-yl ester ditrifluoroacetic acid salt]","Yes (Bronchoprotective effect present at 24 h, e.g., ≧30% inhibition of the MCh response at 24 h in the rat Einthoven assay (100 μg))"
2,"Cc1cc(CNC[C@H](O)c2ccc(O)c3[nH]c(=O)ccc23)ccc1NC(=O)CCCN(C)C(=O)CCN1CCC(OC(=O)Nc2ccccc2-c2ccccc2)CC1 [Compound I-2, Biphenyl-2-ylcarbamic acid 1-(2-{[3-(4-{[(R)-2-hydroxy-2-(8-hydroxy-2-oxo-1,2-dihydroquinolin-5-yl)ethylamino]methyl}-2-methylphenylcarbamoyl)propyl]methylcarbamoyl}ethyl)piperidin-4-yl ester ditrifluoroacetic acid salt]",No
3,"CN(CCCC(=O)Nc1cccc(CCNC[C@H](O)c2ccc(O)c3[nH]c(=O)ccc23)c1)C(=O)CCN1CCC(OC(=O)Nc2ccccc2-c2ccccc2)CC1 [Compound I-7, Biphenyl-2-ylcarbamic Acid 1-(2-{[3-(3{2-[(R)-2-Hydroxy-2-(8-hydroxy-2-oxy-1,2-dihydroquinolin-5-yl)ethylamino]ethyl}phenylcarbamoyl)-propyl]methylcarbamoyl}ethyl)piperidin-4-yl Ester Ditrifluoroacetic Acid Salt]","Yes (Bronchoprotective effect present at 24 h, e.g., ≧30% inhibition of the MCh response at 24 h in the rat Einthoven assay (100 μg))"
4,"C[C@H](Cc1cccc(CC(=O)NCCCN(C)C(=O)CCN2CCC(OC(=O)Nc3ccccc3-c3ccccc3)CC2)c1)NC[C@H](O)c1ccc(O)c2[nH]c(=O)ccc12 [Compound I-12, Biphenyl-2-ylcarbamic acid 1-[2-({3-[2-(3-{(R)-2-[(R)-2-hydroxy-2-(8-hydroxy-2-oxo-1,2-dihydroquinolin-5-yl)ethylamino]propyl}phenyl)acetylamino]propyl}methylcarbamoyl)ethyl]piperidin-4-yl ester ditrifluoroacetic acid salt]",No
5,"C[C@@H](Cc1cccc(CC(=O)NCCCN(C)C(=O)CCN2CCC(OC(=O)Nc3ccccc3-c3ccccc3)CC2)c1)NC[C@H](O)c1ccc(O)c2[nH]c(=O)ccc12 [Compound I-13, Biphenyl-2-ylcarbamic Acid 1[2-({3-[2-(3-{(S)-2-[(R)-2-Hydroxy-2-(8-hydroxy-2-oxo-1,2-dihydroquinolin-5-yl)ethylamino]propyl}phenyl)acetylaminol]-propyl}methylcarbamoyl)ethyl]piperidin-4-yl Ester Ditrifluoroacetic Acid Salt]","Yes (Bronchoprotective effect present at 24 h, e.g., ≧30% inhibition of the MCh response at 24 h in the rat Einthoven assay (100 μg))"
6,"Cc1ccc(C(=O)Nc2ccc(CC(C)NC[C@H](O)c3ccc(O)c4[nH]c(=O)ccc34)cc2)cc1N(C)C(=O)CCN1CCC(OC(=O)Nc2ccccc2-c2ccccc2)CC1 (stereo partly drawn) [Compound I-41, Biphenyl-2-ylcarbamic acid 1-(2-{[5-(4-{2-[(R)-2-hydroxy-2-(8-hydroxy-2-oxo-1,2-dihydroquinolin-5-yl)-ethylamino]propyl}phenylcarbamoyl)-2-methylphenyl]-methylcarbamoyl}ethyl)piperidin-4-yl ester]",No
7,"CN(C(=O)CCN1CCC(OC(=O)Nc2ccccc2-c2ccccc2)CC1)c1cccc(CC(=O)Nc2cccc(CCNC[C@H](O)c3ccc(O)c4[nH]c(=O)ccc34)c2)c1 [Compound I-62, ditrifluoroacetic acid salt]","Yes (Bronchoprotective effect present at 24 h, e.g., ≧30% inhibition of the MCh response at 24 h in the rat Einthoven assay (100 μg))"

# Same assay, conditions: inhaled or nasal, 100 μg by inhalation, 24 h, bronchoprotective effect present, read-out: Broncho. at 24 h
row,Compound,inhibition in vivo at 0.1 mg
1,CN(C(=O)CCN1CCC(OC(=O)Nc2ccccc2-c2ccccc2)CC1)c1cccc(C(=O)Nc2ccc(CNC[C@H](O)c3ccc(O)c4[nH]c(=O)ccc34)cc2)c1 [Compound I-25],> 30%
